Read-outs that look alike come from different tables or passages of the source.

We go through five molecules from US10398672B2, “Methods and compositions for targeting cancer stem cells” (Whitehead Institute for Biomedical Research, priority 2014, dated 2019).

The subject of data set [1] is NAMEC cells. Put plainly: Treatment of NAMEC cells with cAMP analogs (PKA versus EPAC), morphology. Format: cell-based, human. The settings on record: treatment for 12 days, data not shown.
Data set [2] relates to NAMEC cells. The data set is classed as cell-based, human. The settings on record: for susceptibility to inhibition by the drug, in contrast to untreated NAMEC cells: NAMEC cells treated with cholera toxin, FIGS. 8A and 8B.
Data set [3] deals with HMLE cells. Nature of the data set: Dose response to chemotherapeutic drugs, HMLE cells. The data set is classed as cell-based, human. To be noted: dose response curves FIGS. 8A and 8B.
Data set [4] relates to NAMEC cells. Format: cell-based, human.
For data set [5], the system named is E-cadherin/CDH1 promoter. The data set is classed as cell-based, human.
For data set [6] the following is noted: 5 mg/kg, previously tested in vivo in mice; cited from earlier work.
In data set [7] the test system is NAMEC cells. The data set is classed as cell-based, human. The source holds these as a separate data set.
For data set [8], the system named is NAMEC cells. Format: cell-based, human. This is another data set of the same source.
For data set [9], the system named is NAMEC cells. Format: cell-based, human. The source holds these as a separate data set.
In data set [10] the test system is NAMEC cells. The data set is classed as cell-based, human. The source holds these as a separate data set.

Consider `Nc1ncnc2c1nc(Br)n2[C@@H]1O[C@@H]2COP(=O)(O)O[C@H]2[C@H]1O` [8-Br-cAMP], for which the “epithelial morphologies displayed by NAMEC cells” value in data set [1] is recorded as “displayed epithelial morphologies”.
Regarding `COc1cccc2c1C(=O)c1c(O)c3c(c(O)c1C2=O)C[C@@](O)(C(=O)CO)C[C@@H]3O[C@H]1C[C@H](N)[C@H](O)[C@H](C)O1` [doxorubicin], the “susceptibility to inhibition by the drug” value in data set [2] is listed as “highly resistant”; in data set [3], “susceptible”. Further, the “susceptibility to inhibition by the drug, in contrast to untreated NAMEC cells” value in [2] is “more susceptible”.
`C=C[C@@]1(C)CC(=O)[C@]2(O)[C@@]3(C)[C@@H](O)CCC(C)(C)[C@@H]3[C@H](O)[C@H](OC(C)=O)[C@@]2(C)O1` [forskolin]: the “cells expressing the SC-like CD44hiCD24lo marker profile reverted to the non-SC CD44loCD24hi profile” value in [4] (NAMEC cells, 100 μg/ml cholera toxin or 10 μM forskolin over 12 days, flow cytometry) is 95%. In addition, in data set [5], the “induce transcription of the E-cadherin reporter compared to the control after normalization to cell number” value came out at 40 fold; the “relative CDH1 Promoter luciferase activity normalized by cells number: differential activity between non-CSCs and CSC” value is “around 40 fold”. In addition, the “toxicities / side-effects in mice” value in data set [6] is on record as “no reported side-effects”.
As for `CC(=O)O[C@H]1C(=O)[C@@]2(C)[C@H]([C@H](OC(=O)c3ccccc3)[C@]3(O)C[C@H](OC(=O)[C@H](O)[C@@H](NC(=O)c4ccccc4)c4ccccc4)C(C)=C1C3(C)C)[C@]1(OC(C)=O)CO[C@@H]1C[C@@H]2O` [paclitaxel], in data set [2], the “susceptibility to inhibition by the drug” value is “highly resistant” and the “susceptibility to inhibition by the drug, in contrast to untreated NAMEC cells” value is listed as “more susceptible”. In addition, the “susceptibility to inhibition by the drug” value in data set [3] was “susceptible”.
On to cholera toxin, for which, in data set [4], the “cell morphology after treatment” value is “cobblestone-like epithelial morphology”; the “cells expressing the SC-like CD44hiCD24lo marker profile reverted to the non-SC CD44loCD24hi profile” value turned out to be 95%; the “junctional E-cadherin by fluorescent microscopy” value is listed as “expressed junctional E-cadherin”; the “mesenchymal marker fibronectin by fluorescence microscopy” value is “loss of the mesenchymal marker, fibronectin”. Also, the “susceptibility of NAMEC cells to doxorubicin and paclitaxel after induction of MET” value in data set [2] is recorded as “more susceptible”. In data set [5], the “ability to induce luciferase expression (validation of the screen)” value is “induce luciferase expression”. Moreover, the mammosphere-forming ability entry in [7] is “complete loss”. Besides, in data set [8], the “invasive properties of NAMEC cells” value is on record as “loss” and the “migratory properties of NAMEC cells” value was “loss”. Besides, the “intracellular cAMP concentration in NAMEC cells” value in data set [9] is “elevated”. Further, in [10], the “E-cadherin expression compared to untreated NAMEC cells” value is on record as “gain of E-cadherin expression” and the “relative expression of mesenchymal markers compared to untreated NAMEC cells” value is listed as “decrease”.
